Measured values from patent publication US20260199423A1, “COMPOSITIONS COMPRISING AN ONCOLYTIC PEPTIDE AND CHITOSAN” (LYTIX BIOPHARMA AS, priority 2022, published 2026).

System: B16F1 melanoma cells
Assay: Melanoma mouse model, injection into the tumor
Format: in vivo, C57BL/6NRj mice
Conditions: 50 μl into the tumor on two consecutive days; groups of 10 mice; FIG. 2
Description: The following compositions were prepared as described in Example 1 in aqueous acetic acid/acetate buffer, pH 5.2. The following chitosan was used in this study: chitosan medium molecular weight, 330 kDa, DAA 86% (manufacturer Chitinor, Norway). • 1: LTX-401, 5 mg/ml (free base) • 2: Chitosan, 1.2% (w/w) • 3: LTX-401, 5 mg/ml (free base) and chitosan, 1.2% (w/w) • 4: Control: aqueous acetic acid/acetate buffer
Immunocompetent C57BL/6NRj mice (JanVier Labs, France) were inoculated with B16F1 melanoma cells on day 0 by subcutaneous injection of 5×10^4 tumor cells per mouse/50 μl RPMI-1640 in the skin on the abdomen of the animal. The mice were divided into 4 groups of 10 mice each, and treatment was initiated when the tumors were palpable and reached the desired size of approximately 5 mm in diameter (40-80 mm^3). The respective compositions 1~4 were administered by injection into the tumor (50 μl) on two consecutive days (day 11 and 12 or day 12 and 13 or day 13 and 14, depending on tumor growth). The mice were monitored during the study by measuring the tumors and weighing the animals regularly. The tumor volume was measured using an electronic caliper and expressed as volume V=(L×W×W)/2, where W is the tumor width and L is the tumor length. […]

For `NCCNC(=O)C(CN)(CCCc1ccccc1)CCCc1ccccc1` [LTX-401], the Survival was 60%.
